Data reported in US20050249665A1, “Urea-, glycerate- and, hydroxyamide-headed hydrocarbon chain lyotropic phases forming surfactants” (DBL Australia Pty Ltd., priority 2002, published 2005).
Several values for one entry are separate records, joined by “and”; a condition that tells them apart may be missing. Equal entries are not always repeated. Entries after “also recorded” stand apart in the source; their conditions may differ. Where two headings read alike, the source gives them in different places.

What was measured:
Type in all cases: physicochemical
[1] = Water content of saturated lyotropic phase by Karl Fisher titration; settings: 300 mg surfactant in excess water, equilibrated at 40° C.; mean of three samples ± SD
Description: The mass of water incorporated in the lyotropic phase was determined by preparing a 300 mg sample of surfactant in excess water, equilibrating at 40° C., and testing the water content of the lyotropic phase by Karl Fisher titration. Values reported are the mean of three separate samples i standard deviation, unless otherwise indicated.

[2] = Flooding experiment: lyotropic phase formed in excess water at 40° C.; note: key: Hll denotes reverse hexagonal phase; settings: sample maintained at 40° C., crossed polarised light, 200x
Description: (§1) Preliminary assessment of the phase behaviour of a selected compound was conducted using the ‘flooding’ technique. The flooding technique involves placing the compound between a coverslip and microscope slide and introducing water to the sample to establish a water concentration gradient through the sample. […] If the experiment is conducted on a hot stage, the temperature range over which the particular lyotropic phases exist can also be determined. The phase behaviour can be observed under normal or cross-polarised light using an optical microscope. […] For the purpose of the present invention it was especially useful for identifying which phase was present at the boundary with excess water.
For the surfactant to be useful it preferably forms a viscous lyotropic phase in the presence of excess water. The lyotropic phase formed by the surfactant in excess water was determined by flooding experiments, in which a small amount of lipid (typically 5 mg) is placed between a glass microscope slide and coverslip and water introduced to the sample by capillary action, with the sample maintained at 40° C. by means of a hot stage. Observation under crossed polarised light at 200× magnification allows identification of the phase formed by the visible birefringent texture, or lack thereof.

[3] = Lyotropic behaviour: flooding technique on hot stage, optical microscopy under crossed polarised light
Description: as §1

[4] = flooding with water, temperature as stated per example

SMILES	% water (w/w) in saturated lyotropic phase [1]	Phase formed in excess water [2]	Lyotropic phase formed at the interface with water [3]	Temperature at which the lyotropic phase forms / begins to form on contact with water [3] [°C]	Temperature at which the hexagonal phase is completely melted / sample completely isotropic ([3]; flooding, heating)	Lyotropic phase formed at the interface with water [3, 4]	Temperature at which the lyotropic phase forms / begins to form on contact with water ([3]; flooding, heating)	Temperature at which the hexagonal phase begins to melt ([3]; flooding, heating) [°C]	Temperature at which the hexagonal phase reappears on cooling ([3]; flooding, cooling) [°C]	Temperature at which the isotropic cubic phase reforms on cooling ([3]; flooding, cooling) [°C]	Temperature at which the isotropic cubic phase has disappeared ([3]; flooding, heating) [°C]
CC(C)CCCC(C)CCCC(C)CCCC(C)CC(=O)OCC(O)CO (centres unmarked) [3,7,11,15-tetramethyl-hexadecanoic acid 1-glycerol ester]	23.1 ± 3.2 % (w/w)	Hll	–	–	–	–	–	–	–	–	–
CCCCCCCC/C=C\CCCCCCCCNC(=O)NCCO [Example 8, 1-(2-Hydroxyethyl)-3-(cis-octadec-9-enyl) urea]	–	–	isotropic phase	59.5	~67 °C	–	–	–	–	–	–
CCCCCCCC/C=C\CCCCCCCCNC(=O)NC(N)=O [Example 9, cis-octadec-9-enyl biuret]	–	–	–	–	107 °C	hexagonal phase	85 °C	–	–	–	–
CC(C)CCCC(C)CCCC(C)CCCC(C)CC(=O)NC(C)(CO)CO (centres unmarked) [Example 7, 3,7,11,15-tetramethyl-hexadecanoic acid (1,1-bis-hydroxymethyl-ethyl)-amide]	–	–	–	–	26.7 °C	isotropic phase; also recorded: hexagonal phase	10-15 °C	25.5	–	–	–
CC(C)CCCC(C)CCCC(C)CCCC(C)CCNC(=O)NCCO (centres unmarked) [Example 2, 1-(3,7,11,15-tetramethyl-hexadecyl)-3-(2-hydroxyethyl) urea]	14.3 ± 4.6 % (w/w)	Hll	–	–	58 °C and 57.3 °C	reverse hexagonal phase	below 8 °C	40.4	44.1	–	–
CC(C)CCCC(C)CCCC(C)CCCC(C)CCNC(N)=O (centres unmarked) [Example 3, 3,7,11,15Tetramethyl-hexadecyl urea]	28.4 ± 2.3 % (w/w)	Hll	–	–	82.1 °C	reverse hexagonal phase	25 °C	72.6	–	–	–
CCCCCCCC/C=C\CCCCCCCCNC(N)=O [Example 10, cis-octadec-9enyl urea]	–	–	–	–	110 °C	reverse hexagonal phase	61 °C	–	–	–	–
CC(C)CCCC(C)CCCC(C)CCNC(N)=O (centres unmarked) [Example 4, 3,7,11-Trimethyl-dodecyl urea]	8.1 ± 2.5 % (w/w)	Hll	–	–	> 70 °C	reverse hexagonal phase	30 °C	55	–	–	–
CC(C)CCCC(C)CCCC(C)CCCC(C)CCN(CCO)C(N)=O (centres unmarked) [Example 1, 1-(3,7,11,15tetramethyl-hexadecyl)-1-(2-hydroxyethyl) urea]	–	Hll	–	–	58.1 °C	reverse hexagonal phase	20 °C	50.9	51.1	–	–
CC(C)CCCC(C)CCCC(C)CCOC(=O)C(O)CO (centres unmarked) [2,3-Dihydroxypropionic acid 3,7,11-trimethyl-dodecyl ester]	24.7 ± 0.7 % (w/w)	Hll	–	–	–	–	–	–	–	–	–
CCCCC/C=C\C/C=C\CCCCCCCCNC(N)=O [Example 11, cis, cis-octadec-9,12-dienyl urea]	–	–	–	–	92-93 °C	reverse hexagonal phase	53 °C	–	–	–	–
CCCCCCCC/C=C\CCCCCCCCOC(=O)C(O)CO (centres unmarked) [Example 5, 2,3-Dihydroxypropionic acid octadec-9-enyl ester]	16.8 ± 3.9 % (w/w)	Hll	–	–	80 °C	–	30 °C	65	77	40	70
CC(C)CCCC(C)CCCC(C)CCCC(C)CCOC(=O)C(O)CO (centres unmarked) [Example 6, 2,3-Dihydroxypropionic acid 3,7,11,15-tetramethyl-hexadecyl ester]	28.7 ± 2.5 % (w/w)	Hll	–	–	48 °C	reverse hexagonal phase	room temperature	~40	–	–	–
